From ChEMBL document CHEMBL2346514, “Efficient synthesis and antimicrobial activity of some novel S-β-d-glucosides of 5-aryl-1,2,4-triazole-3-thiones derivatives” (2013)
In brackets after ≈: the same amount, converted by molar mass. Activity calls are given as the source filed them. The calls are words filed in the database; no cut-off is given here.

Tests used:
Type in all cases: functional
[1] = tested on: Escherichia coli; assay: Antibacterial activity against Escherichia coli ATCC 8099 after 24 hrs by NCCLS method
[2] = tested on: Staphylococcus aureus; assay: Antibacterial activity against Staphylococcus aureus ATCC 6538 after 24 hrs by NCCLS method
[3] = Antifungal activity against Monilia albican ATCC 10231 after 24 to 72 hrs by NCCLS method

Compound | MBC ([1]; ATCC 8099, 24 h) | MIC ([1]; ATCC 8099, 24 h) | MBC ([2]; ATCC 6538, 24 h) | MIC ([2]; ATCC 6538, 24 h) | MFC [3] | MIC [3] | MBC [1] | MIC [1] | MBC [2] | MIC [2]
CC(=O)OC[C@H]1O[C@@H](Sc2nnc(-c3ccccc3O)n2/N=C/c2ccccc2Cl)[C@H](OC(C)=O)[C@@H](OC(C)=O)[C@@H]1OC(C)=O | 128 µg/mL (≈ 194 µM) | 128 µg/mL (≈ 194 µM) | 128 µg/mL (≈ 194 µM) | 128 µg/mL (≈ 194 µM) | 64 µg/mL (≈ 96.8 µM) | 32 µg/mL (≈ 48.4 µM) | – | – | – | –
CC(=O)OC[C@H]1O[C@@H](Sc2nnc(-c3ccccc3O)n2/N=C/c2ccccc2O)[C@H](OC(C)=O)[C@@H](OC(C)=O)[C@@H]1OC(C)=O | 64 µg/mL (≈ 99.6 µM) | 64 µg/mL (≈ 99.6 µM) | 128 µg/mL (≈ 199 µM) | 128 µg/mL (≈ 199 µM) | 64 µg/mL (≈ 99.6 µM) | 64 µg/mL (≈ 99.6 µM) | – | – | – | –
Oc1cc(Cl)ccc1Oc1ccc(Cl)cc1Cl [TRICLOSAN] | 4 µg/mL (≈ 13.8 µM) | 2 µg/mL (≈ 6.91 µM) | 4 µg/mL (≈ 13.8 µM) | 4 µg/mL (≈ 13.8 µM) | 64 µg/mL (≈ 221 µM) | 32 µg/mL (≈ 111 µM) | – | – | – | –
CC(=O)OC[C@H]1O[C@@H](Sc2nnc(-c3ccccc3)n2/N=C/c2cc(Cl)ccc2O)[C@H](OC(C)=O)[C@@H](OC(C)=O)[C@@H]1OC(C)=O | 128 µg/mL (≈ 194 µM) | 128 µg/mL (≈ 194 µM) | 128 µg/mL (≈ 194 µM) | 64 µg/mL (≈ 96.8 µM) | 32 µg/mL (≈ 48.4 µM) | 16 µg/mL (≈ 24.2 µM) | – | – | – | –
CC(=O)OC[C@H]1O[C@@H](Sc2nnc(-c3ccccc3O)n2/N=C/c2ccccc2)[C@H](OC(C)=O)[C@@H](OC(C)=O)[C@@H]1OC(C)=O | 256 µg/mL (≈ 409 µM) | 128 µg/mL (≈ 204 µM) | 256 µg/mL (≈ 409 µM) | 128 µg/mL (≈ 204 µM) | 32 µg/mL (≈ 51.1 µM) | 32 µg/mL (≈ 51.1 µM) | – | – | – | –
CC(=O)OC[C@H]1O[C@@H](Sc2nnc(-c3ccccc3O)n2/N=C/c2cc(Br)cc(Br)c2O)[C@H](OC(C)=O)[C@@H](OC(C)=O)[C@@H]1OC(C)=O | 16 µg/mL (≈ 20 µM) | 16 µg/mL (≈ 20 µM) | 32 µg/mL (≈ 40 µM) | 32 µg/mL (≈ 40 µM) | 32 µg/mL (≈ 40 µM) | 16 µg/mL (≈ 20 µM) | – | – | – | –
CC(=O)OC[C@H]1O[C@@H](Sc2nnc(-c3ccccc3O)n2/N=C/c2cc(Cl)ccc2O)[C@H](OC(C)=O)[C@@H](OC(C)=O)[C@@H]1OC(C)=O | 256 µg/mL (≈ 378 µM) | 128 µg/mL (≈ 189 µM) | 128 µg/mL (≈ 189 µM) | 128 µg/mL (≈ 189 µM) | 32 µg/mL (≈ 47.3 µM) | 16 µg/mL (≈ 23.6 µM) | – | – | – | –
GENTAMICIN | – | – | – | – | 4 µg/mL | 4 µg/mL | 4 µg/mL | 2 µg/mL | 2 µg/mL | 2 µg/mL
OC(Cn1cncn1)(Cn1cncn1)c1ccc(F)cc1F [FLUCONAZOLE] | 128 µg/mL (≈ 418 µM) | 128 µg/mL (≈ 418 µM) | 32 µg/mL (≈ 104 µM) | 16 µg/mL (≈ 52.2 µM) | 4 µg/mL (≈ 13.1 µM) | 2 µg/mL (≈ 6.53 µM) | – | – | – | –
CC(=O)OC[C@H]1O[C@@H](Sc2nnc(-c3ccccc3)n2/N=C/c2ccccc2)[C@H](OC(C)=O)[C@@H](OC(C)=O)[C@@H]1OC(C)=O | 128 µg/mL (≈ 210 µM) | 128 µg/mL (≈ 210 µM) | 64 µg/mL (≈ 105 µM) | 64 µg/mL (≈ 105 µM) | 64 µg/mL (≈ 105 µM) | 32 µg/mL (≈ 52.4 µM) | – | – | – | –
CC(=O)OC[C@H]1O[C@@H](Sc2nnc(-c3ccccc3)n2/N=C/c2ccccc2O)[C@H](OC(C)=O)[C@@H](OC(C)=O)[C@@H]1OC(C)=O | – | – | 128 µg/mL (≈ 204 µM) | 64 µg/mL (≈ 102 µM) | 64 µg/mL (≈ 102 µM) | 32 µg/mL (≈ 51.1 µM) | inactive | inactive | – | –
CC(=O)OC[C@H]1O[C@@H](Sc2nnc(-c3ccccc3)n2/N=C/c2cc(Br)ccc2O)[C@H](OC(C)=O)[C@@H](OC(C)=O)[C@@H]1OC(C)=O | 128 µg/mL (≈ 181 µM) | 128 µg/mL (≈ 181 µM) | 32 µg/mL (≈ 45.4 µM) | 32 µg/mL (≈ 45.4 µM) | 16 µg/mL (≈ 22.7 µM) | 16 µg/mL (≈ 22.7 µM) | – | – | – | –
CC(=O)OC[C@H]1O[C@@H](Sc2nnc(-c3ccccc3)n2/N=C/c2cc(Br)cc(Br)c2O)[C@H](OC(C)=O)[C@@H](OC(C)=O)[C@@H]1OC(C)=O | 16 µg/mL (≈ 20.4 µM) | 16 µg/mL (≈ 20.4 µM) | 32 µg/mL (≈ 40.8 µM) | 16 µg/mL (≈ 20.4 µM) | 16 µg/mL (≈ 20.4 µM) | 16 µg/mL (≈ 20.4 µM) | – | – | – | –
CC(=O)OC[C@H]1O[C@@H](Sc2nnc(-c3ccccc3O)n2/N=C/c2cc(Br)ccc2O)[C@H](OC(C)=O)[C@@H](OC(C)=O)[C@@H]1OC(C)=O | 128 µg/mL (≈ 177 µM) | 128 µg/mL (≈ 177 µM) | 128 µg/mL (≈ 177 µM) | 64 µg/mL (≈ 88.7 µM) | 16 µg/mL (≈ 22.2 µM) | 16 µg/mL (≈ 22.2 µM) | – | – | – | –
CC(=O)OC[C@H]1O[C@@H](Sc2nnc(-c3ccccc3)n2/N=C/c2ccccc2Cl)[C@H](OC(C)=O)[C@@H](OC(C)=O)[C@@H]1OC(C)=O | 128 µg/mL (≈ 198 µM) | 128 µg/mL (≈ 198 µM) | 128 µg/mL (≈ 198 µM) | 128 µg/mL (≈ 198 µM) | 64 µg/mL (≈ 99.2 µM) | 64 µg/mL (≈ 99.2 µM) | – | – | – | –
